# Data as given in patent US4719220A, “15(R)-5-fluoroprostacyclins, pharmaceutical compositions and anti-thrombotic methods of use thereof” (G. D. Searle & Co., priority 1986, dated 1988).
# Counter-ions that a name gives are not always drawn.
# Key:
# [1] = system: mean blood pressure / platelet aggregation; conditions: sodium salts, cited from earlier work; for ratio of blood pressure lowering activity and platelet aggregation inhibiting activity: dose for 20% lowering of mean blood pressure / minimum concentration for 50% inhibition of aggregation, PGI2 = 1; for platelet aggregation inhibition in comparison with blood pressure lowering, compared to PGI2: EP Publication No. 0054795
# [2] = system: ADP-Thrombocytopenia (platelet numbers); assay: In vivo ADP-thrombocytopenia; parameters: species or system rat; conditions: rats; for In vivo (ADP-Thrombocytopenia) ED50: Table I, infusion right jugular vein five minutes, ADP 0.5 mg/kg; for Anti-Aggregatory in vivo (ADP-Thrombocytopenia) ED50: Table II
# Protocol: In vivo ADP-thrombocytopenia
# Vehicle/compound in saline is infused for five minutes in the right jugular vein of rats (400-500 g) anesthetized with pentobarbital. Adenosine diphosphate (0.5 mg/kg) in saline is immediately infused for one minute in the left jugular vein. Blood samples are drawn (1:10 into 3.8% citrate) and platelets counted on a Coulter counter and platelet numbers in treated animals are compared to controls. The ED50 (effectiVe dose in 50% of treated animals--μg/kg/minute) for compound activity is calculated from linear regression.
# [3] = system: mean arterial pressure; assay: Hexamethonium Rat hypotensive activity (spontaneously hypertensive rats); type: in vivo; conditions: iv bolus
# Protocol: Hexamethonium Rat (Duration)
# Spontaneously hypertensive rats (300-400 g.) are anesthetized with 100 mg/kg barbital/25 mg/kg pentobarbital ip. The jugular vein and carotid artery are then cannulated with polyethylene-50 tubing (for drug administration and blood pressure measurement, respectively). A tracheotomy tube is inserted and animals breathe 100% O2 spontaneously. Body temperature is maintained at 37° C. with a thermister probe and heat lamp. Rats are then dosed with 1 mg/kg hexamethonium, iv bolus. After a 10-minute stabilization period, animals are dosed with compound. All compounds are dissolved in either glycine buffer or saline and given in a volume of 1 ml kg. Approximate ED50 doses are administered iv bolus and mean arterial pressure (MAP) is recorded every 30 seconds for 5 minutes, then every minute for a 15-20 minute period or until pressure returns to baseline. Changes in MAP (compared to pre-treatment values) are analyzed with a paired t-test.
# [4] = system: ADP-induced platelet aggregation; assay: In vitro ADP aggregation (platelet-rich plasma); type: cell-based; conditions: Table I; rat platelet-rich plasma, ADP 1-2 uM
# Protocol: Rationale: The changes in optical density resulting from ADP-stimulation of platelet-rich plasma is used to identify compounds which inhibit or reverse platelet activation.
# 1. Platelet-rich plasma (PRP) is obtained from citrated whole rat blood.
# 2. Compound solutions are prepared at the initial screening dose of 1×1O^-4 M.
# 3. The prostacyclin (PGI2) standard is prepared in 0.lM NaOH-glycine (pH 10.0) over a range of 10^-9 -10^-8 M.
# 4. ADP in saline is added to PRP over a range of 1-2 uM to determine a concentration eliciting maximum aggregation within one minute.
# 5. PRP containing standard or test compound is preincubated for 1 minute and then stimulated with ADP. Vehicle controls are tested simultaneously.
# 6. The aggregation wave generated is monitored until the reversal phase is observed.
# 7. Platelet aggregation is quantified as the units of depth between the baseline and maximum depth.
# 8. Dose-response curves are generated for percent inhibition of ADP-induced platelet aggregation.
# 9. In vitro activity of the compounds screened is assessed by comparison of IC50 (M) with that of PGI2.
# [5] = system: mean arterial pressure; assay: Hypotensive Activity in Normotensive Rats; type: in vivo, normotensive Sprague-Dawley rats; conditions: Table II; for ED (25 mm Hg): Rattus norvegicus, iv, bolus i.v., dose lowering pressure 25 mm Hg, read-out: Blood Pressure ED25; for Therapeutic Index (Blood Pressure ED25 / Anti-Aggregatory): ED25 blood pressure over ED50 ADP-thrombocytopenia
# Protocol: Hypotensive Activity in Normotensive Rats.
# Normotensive Sprague-Dawley rats (weighing 400 to 500 g) are anesthetized wrth 100 mg/kg barbital/25 mg/kg pentobarbital intraperitoneally. The jugular vein and carotid artery are then cannulated with polyethylene-50 tubing (for drug administration and blood pressure measurement, respectively). A tracheotomy tube is inserted and animals breath 100% O2 spontaneously.
# Also, body temperature is maintained at 37° C. with a thermister probe and heat lamp. After a 10 to 15 minute stabilization period, bolus i.v. injections of compound are given and responses (decrease in mean arterial pressure in mm Hg) are recorded. A linear regression analysis is then performed on the data to yield the following information:
# EDO --threshold dose or dose at which an effect is first observed.
# ED50 --the dose which causes 50% of the maximal response slope of the regression line in mm Hg.
# When blood pressure lowering effects are minimal, an ED50 cannot be determined and, instead, an ED25 (dose which lowers the maximal pressure 25 mm Hg) is calculated.
# [6] = system: blood pressure; conditions: U.S. Pat. No. 4,178,367; cited from earlier work
smiles,measurement,setting,value
"CCCCCC(O)C=CC1C(O)CC2OC(=C(Cl)CCCC(=O)[O-])CC21.[Na+] (stereo not drawn) [5-chloro derivative, 5-chloro-PGI2 sodium salt]",ratio of blood pressure lowering activity and platelet aggregation inhibiting activity,[1],4
same,"platelet aggregation inhibition in comparison with blood pressure lowering, compared to PGI2",[1],stronger activities with respect to the inhibition of platelet aggregation in comparison with their blood pressure lowering activities compared to PGI2
"CCCCCC(O)C=CC1C(O)CC2OC(=CCCCC(=O)[O-])C(F)C21.[Na+] (stereo not drawn) [7-fluoro derivative, 7-fluoro-PGI2 sodium salt]",ratio of blood pressure lowering activity and platelet aggregation inhibiting activity,[1],32
same,"platelet aggregation inhibition in comparison with blood pressure lowering, compared to PGI2",[1],stronger activities with respect to the inhibition of platelet aggregation in comparison with their blood pressure lowering activities compared to PGI2
"O=C(O)CCC/C(F)=C1/C[C@@H]2[C@@H](/C=C/[C@@H](O)C3CCCC3)[C@H](O)C[C@@H]2O1 [(5F,15S)]",In vivo (ADP-Thrombocytopenia) ED50,[2],0.87 µg/kg/min
same,"Blood Pressure Hexamethonium Rat, Blood Pressure/dose (decrease)",[3]; 10 μg/kg,-104 mm/Hg
same,IC50,[4],11 nM
"O=C(O)CCC[C@@H](F)C1=C[C@@H]2[C@@H](/C=C/[C@H](O)C3CCCC3)[C@H](O)C[C@@H]2O1 [(5R,15R), 15-cyclopentyl-6,9α-Epoxy-5R-fluoro-11α,15R-dihydroxy-16,17,18,19,20-pentanorprosta-6,13E-dien-1-oic acid, sodium salt]",In vivo (ADP-Thrombocytopenia) ED50,[2],2.3 µg/kg/min
same,Anti-Aggregatory in vivo (ADP-Thrombocytopenia) ED50,[2],2.3 µg/kg/min
same,IC50,[4],600 nM
same,ED (25 mm Hg),[5],0.501 mg/kg
same,Therapeutic Index (Blood Pressure ED25 / Anti-Aggregatory),[5],217.8
"O=C(O)CCC[C@@H](F)C1=C[C@@H]2[C@@H](/C=C/[C@@H](O)C3CCCC3)[C@H](O)C[C@@H]2O1 [(5R,15S)]",In vivo (ADP-Thrombocytopenia) ED50,[2],3.0 µg/kg/min
same,Anti-Aggregatory in vivo (ADP-Thrombocytopenia) ED50,[2],3.0 µg/kg/min
same,"Blood Pressure Hexamethonium Rat, Blood Pressure/dose (decrease)",[3]; 10 μg/kg,-47 mm/Hg
same,IC50,[4],190 nM
same,ED (25 mm Hg),[5],0.0026 mg/kg
same,Therapeutic Index (Blood Pressure ED25 / Anti-Aggregatory),[5],0.87
"O=C(O)CCC[C@H](F)C1=C[C@@H]2[C@@H](/C=C/[C@H](O)C3CCCC3)[C@H](O)C[C@@H]2O1 [(5S,15R), 15-cyclopentyl-6,9α-Epoxy-5S-fluoro-11α, 15R-dihydroxy-16,17,18,19,20-pentanorprosta-6,13E-dien-1-oic acid, sodium salt]",In vivo (ADP-Thrombocytopenia) ED50,[2],3.3 µg/kg/min
same,"Blood Pressure Hexamethonium Rat, Blood Pressure/dose (decrease)",[3]; 100 μg/kg,Inactive
same,IC50,[4],8600 nM
"O=C(O)CCC[C@H](F)C1=C[C@@H]2[C@@H](/C=C/[C@@H](O)C3CCCC3)[C@H](O)C[C@@H]2O1 [(5S,15S)]",In vivo (ADP-Thrombocytopenia) ED50,[2],2.3 µg/kg/min
same,"Blood Pressure Hexamethonium Rat, Blood Pressure/dose (decrease)",[3]; 10 μg/kg,-42 mm/Hg
same,IC50,[4],100 nM
"CCCC1CCC([C@H](O)/C=C/[C@@H]2[C@H]3C/C(=C/CCCC(=O)OC)O[C@H]3C[C@H]2O)C1 (stereo partly drawn) [(5Z, 13E)-(9α,11α,15S)-6,9-epoxy-11,15-dihydroxy-15-(3 propyl)cyclopentyl-16, 17, 18, 19, 20-pentanorprosta-5,13-dienoic acid methyl ester]",blood pressure lowering activity compared to a 15R derivative,[6],greater blood pressure lowering activity
O=C(O)CCC/C=C1/C[C@@H]2[C@@H](/C=C/[C@H](O)C3CCCC3)[C@H](O)C[C@@H]2O1 [(15R)],"Blood Pressure Hexamethonium Rat, Blood Pressure/dose (decrease)",[3]; 100 μg/kg,-76 mm/Hg
same,IC50,[4],630 nM
O=C(O)CCC/C=C1/C[C@@H]2[C@@H](/C=C/[C@@H](O)C3CCCC3)[C@H](O)C[C@@H]2O1 [(15S)],"Blood Pressure Hexamethonium Rat, Blood Pressure/dose (decrease)",[3]; 0.2 μg/kg,-83 mm/Hg
same,IC50,[4],76 nM
"CCCCC[C@H](O)/C=C/[C@@H]1[C@H]2C/C(=C/CCCC(=O)O)O[C@H]2C[C@H]1O [PGI2, (5Z)-9-deoxy-6,9α-epoxy-Δ^5 -PGF1]",ratio of blood pressure lowering activity and platelet aggregation inhibiting activity,[1],1
